The NIST ThermoML archive (doi:10.1016/j.tca.2007.11.004)
Where “and” joins values, the source holds several entries; their conditions need not be identical. Equal entries are not always repeated.

Details: Crystal, Transpiration method

O=[Te]=O [tellurium dioxide]
Details	vapor or sublimation pressure
884 K	0.0001487 kPa
889 K	0.0001692 kPa
895 K	0.0001987 kPa
899 K	0.0002538 kPa
905 K	0.0003102 kPa
909 K	0.0003271 kPa
915 K	0.0004741 kPa
925 K	0.0006099 kPa and 0.0006023 kPa and 0.0005679 kPa
926 K	0.0005409 kPa
935 K	0.0009295 kPa
940 K	0.001155 kPa
941 K	0.001072 kPa
946 K	0.001255 kPa
951 K	0.001465 kPa
960 K	0.002168 kPa
971 K	0.003407 kPa
976 K	0.003717 kPa
982 K	0.004543 kPa
987 K	0.004956 kPa
